From patent US12441768B2, “Compositions and methods for treating endometriosis” (EndoMet Biosciences, Inc., priority 2018, dated 2025)
Read-outs that look alike come from different tables or passages of the source. Where a SMILES comes first, the peptide text is derived from it. [ ]: non-standard residue; d: D form. The star is where a group is joined. ξ: configuration not given here. NMeW = CN[C@@H](Cc1c[nH]c2ccccc12)C(=O)O; Palmitoyl = CCCCCCCCCCCCCCCC(=O)*; ξαMeV = CC(C)C(C)(N)C(=O)O; ξαMeS = CC(N)(CO)C(=O)O; GABA = NCCCC(=O)O

Tests used:
β-catenin = target: T1, β-catenin (Homo sapiens, UniProt P35222); experiment: KD50 measurement using competitive fluorescence polarization (FP) with labelled TCF4; format: binding; details: fluorescence polarization, β-catenin
T1 sequence (P35222 1-781): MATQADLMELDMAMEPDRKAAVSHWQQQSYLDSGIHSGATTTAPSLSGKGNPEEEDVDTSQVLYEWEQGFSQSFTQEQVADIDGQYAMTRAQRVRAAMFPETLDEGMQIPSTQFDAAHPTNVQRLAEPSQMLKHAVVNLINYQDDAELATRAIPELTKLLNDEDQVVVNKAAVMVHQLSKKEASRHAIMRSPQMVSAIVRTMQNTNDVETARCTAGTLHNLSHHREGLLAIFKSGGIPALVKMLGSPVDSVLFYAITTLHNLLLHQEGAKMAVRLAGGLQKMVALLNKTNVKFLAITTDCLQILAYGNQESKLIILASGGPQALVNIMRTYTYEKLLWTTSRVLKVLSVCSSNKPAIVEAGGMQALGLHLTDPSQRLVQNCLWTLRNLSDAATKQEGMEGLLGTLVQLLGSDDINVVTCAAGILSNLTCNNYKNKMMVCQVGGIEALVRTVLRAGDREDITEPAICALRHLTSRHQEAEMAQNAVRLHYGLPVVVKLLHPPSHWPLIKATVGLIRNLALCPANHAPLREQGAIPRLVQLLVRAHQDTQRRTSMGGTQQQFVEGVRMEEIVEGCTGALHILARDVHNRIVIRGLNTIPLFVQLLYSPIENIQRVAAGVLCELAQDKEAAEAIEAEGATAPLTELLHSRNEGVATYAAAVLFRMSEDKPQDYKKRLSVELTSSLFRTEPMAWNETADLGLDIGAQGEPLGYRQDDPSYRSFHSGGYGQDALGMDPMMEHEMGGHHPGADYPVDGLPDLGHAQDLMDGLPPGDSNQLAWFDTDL
In short: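 Labelled TCF4 (5 nM) mixed with 100 nM β-catenin at room temperature; inhibitor added as serial dilutions from 10 nM to 30 uM. Polarization read at excitation 470 nm/emission 520 nm; binding displacement lowers polarization. Three independent runs.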

[1] = target: Wnt-responsive promoter (TCF/LEF); experiment: Wnt-dependent luciferase reporter assay; format: cell-based, murine
Protocol: The luciferase reporter assay is commonly used as a tool to study gene expression at the transcriptional level. Peptides from libraries described herein were characterized for ability to suppress transcription in cells with luciferase expression controlled by a Wnt-responsive promoter. Peptides were added to cells transfected with luciferase gene downstream of a Wnt-responsive promoter. Cells were stimulated with Wnt3a protein and incubated with peptides from libraries described herein. Luminescence was recorded to determine the peptides with the highest β-catenin-inhibiting activity. EC50 values were calculated based on the inhibition of luminescence and expressed as concentration (uM) in Table 5.
Peptides were assessed for their ability to inhibit Wnt signaling. Murine 3T3 fibroblasts that express luciferase under a Wnt-responsive promoter (TCF/LEF) (Enzo Life Sciences, Farmingdale, NY) were stimulated with Wnt3a in the presence of increasing concentrations of peptide inhibitor (Hit 1: SEQ ID NO:217, Hit 2: SEQ ID NO:224, Hit 3: SEQ ID NO:228, Hit 4: SEQ ID NO:227, Hit 5: SEQ ID NO:220, Hit 6: SEQ ID NO:168. Hit 7: SEQ ID NO:226) or with vehicle control (FIG. 2A).

Structure (SMILES)	β-Cat FP Hill slope (β-catenin)	Kd (β-catenin; read-out: β-Cat FP KD) [µM]	EC50 [1] [µM]	Kd (β-catenin; β-Cat FP KD) [µM]
CC[C@H](C)[C@@H]1NC(=O)[C@@H](NC(=O)[C@H](CCC(N)=O)NC(=O)[C@H](C)N(C)C(=O)[C@@H](N)Cc2c[nH]c3ccccc23)CCCCNC(=O)CC[C@@H](C(=O)N[C@@H](Cc2c[nH]cn2)C(=O)N[C@H](C(=O)N[C@@H](CCC(N)=O)C(=O)N[C@@H](CCCNC(=N)N)C(=O)N[C@H](C(=O)N[C@@H](Cc2c[nH]c3ccccc23)C(=O)NCC(N)=O)C(C)C)C(C)C)NC(=O)[C@H](CC(=O)O)NC(=O)[C@H](CC(C)C)NC1=O [compound 401] (HELM PEPTIDE1{W.[meA].Q.K.I.L.D.E.H.V.Q.R.V.W.G.[am]}$PEPTIDE1,PEPTIDE1,4:R3-8:R3$$$V2.0)	0.7	0.4 to 1	> 30	–
CCCCCCCCCCCCCCCC(=O)NCC(=O)N[C@@H](Cc1c[nH]c2ccccc12)C(=O)N(C)[C@@H](Cc1c[nH]c2ccccc12)C(=O)N[C@@H](CCC(=O)O)C(=O)NC(C)(CO)C(=O)N[C@H](C(=O)N[C@@H](CC(C)C)C(=O)N[C@@H](CC(=O)O)C(=O)N[C@@H](CCC(=O)O)C(=O)N[C@@H](Cc1c[nH]cn1)C(=O)NC(C)(C(=O)N[C@@H](CCC(N)=O)C(=O)N[C@@H](CCCNC(=N)N)C(=O)N[C@H](C(=O)N[C@@H](Cc1c[nH]c2ccccc12)C(=O)O)C(C)C)C(C)C)[C@@H](C)CC (some centres unmarked) [compound 398] (Palmitoyl-GW[NMeW]E[ξαMeS]ILDEH[ξαMeV]QRVW-OH)	–	–	7.5 to 15	–
CCCCCCCCCCCC(=O)N(C)[C@@H](C)C(=O)N[C@@H](CCC(N)=O)C(=O)N[C@H]1CCCCNC(=O)CC[C@@H](C(=O)N[C@@H](Cc2c[nH]cn2)C(=O)N[C@H](C(=O)N[C@@H](CCC(N)=O)C(=O)N[C@@H](CCCNC(=N)N)C(=O)N[C@H](C(=O)N[C@@H](Cc2c[nH]c3ccccc23)C(=O)NCC(N)=O)C(C)C)C2CCCCC2)NC(=O)[C@H](CC(N)=O)NC(=O)[C@H](CC(C)C)NC(=O)[C@H]([C@@H](C)CC)NC1=O [compound 434] (HELM PEPTIDE1{[CCCCCCCCCCCC(=O)[*:2]].[meA].Q.K.I.L.N.E.H.[O=C([C@@H](N[*:1])C1CCCCC1)[*:2]].Q.R.V.W.G.[am]}$PEPTIDE1,PEPTIDE1,4:R3-8:R3$$$V2.0)	–	< 0.4	–	–
CC[C@H](C)[C@H](NC(=O)[C@H](CC(C)C)NC(=O)[C@H](C)NC(=O)[C@H](Cc1c[nH]c2ccccc12)NC(=O)[C@@H](N)CCSC)C(=O)N[C@@H](CO)C(=O)N[C@@H](Cc1ccccc1)C(=O)N[C@@H](Cc1c[nH]c2ccccc12)C(=O)NCC(=O)O [compound 13] (H-MWALISFWG-OH)	0.86	0.4 to 1	–	–
CCCCCCCCCCCCCCCC(=O)NCCCC(=O)N[C@@H](Cc1c[nH]c2ccccc12)C(=O)N(C)[C@@H](Cc1c[nH]c2ccccc12)C(=O)N[C@@H](CCC(=O)O)C(=O)NC(C)(CO)C(=O)N[C@H](C(=O)N[C@@H](CC(C)C)C(=O)N[C@@H](CC(=O)O)C(=O)N[C@@H](CCC(=O)O)C(=O)N[C@@H](Cc1c[nH]cn1)C(=O)NC(C)(C(=O)N[C@@H](CCC(N)=O)C(=O)N[C@@H](CCCNC(=N)N)C(=O)N[C@H](C(=O)N[C@@H](Cc1c[nH]c2ccccc12)C(=O)O)C(C)C)C(C)C)[C@@H](C)CC (some centres unmarked) [compound 400] ({Palmitoyl-GABA}-W[NMeW]E[ξαMeS]ILDEH[ξαMeV]QRVW-OH)	–	–	7.5 to 15	–
CC[C@H](C)[C@@H]1NC(=O)[C@H](CC(C)C)NC(=O)[C@H](Cc2ccccc2)NC(=O)[C@@H](N)CCCCNC(=O)C[C@@H](C(=O)O)NC(=O)[C@H](Cc2c[nH]c3ccccc23)NC(=O)[C@H](Cc2ccccc2)NC(=O)[C@H](C)NC1=O [compound 253] (HELM PEPTIDE1{K.F.L.I.A.F.W.D}$PEPTIDE1,PEPTIDE1,1:R3-8:R3$$$V2.0)	–	> 30	–	–
CCCCCCCCCCCC(=O)N[C@@H](Cc1c[nH]c2ccccc12)C(=O)N(C)[C@@H](C)C(=O)N[C@@H](CCC(N)=O)C(=O)N[C@H]1CCCCNC(=O)CC[C@@H](C(=O)N[C@@H](Cc2c[nH]cn2)C(=O)N[C@H](C(=O)N[C@@H](CCC(N)=O)C(=O)N[C@@H](CCCNC(=N)N)C(=O)N[C@H](C(=O)N[C@@H](Cc2c[nH]c3ccccc23)C(=O)NCC(N)=O)C(C)C)C2CCCCC2)NC(=O)[C@H](CC(N)=O)NC(=O)[C@H](CC(C)C)NC(=O)[C@H]([C@@H](C)CC)NC1=O [compound 436] (HELM PEPTIDE1{[CCCCCCCCCCCC(=O)[*:2]].W.[meA].Q.K.I.L.N.E.H.[O=C([C@@H](N[*:1])C1CCCCC1)[*:2]].Q.R.V.W.G.[am]}$PEPTIDE1,PEPTIDE1,5:R3-9:R3$$$V2.0)	–	> 30	–	–
CCCCCCCCC(=O)N[C@@H](Cc1c[nH]c2ccccc12)C(=O)N(C)[C@@H](C)C(=O)N[C@@H](CCC(N)=O)C(=O)N[C@H]1CCCCNC(=O)C[C@@H](C(=O)N[C@@H](Cc2c[nH]cn2)C(=O)N[C@H](C(=O)N[C@@H](CCC(N)=O)C(=O)N[C@@H](CCCNC(=N)N)C(=O)N[C@H](C(=O)N[C@@H](Cc2c[nH]c3ccccc23)C(=O)NCC(N)=O)C(C)C)C2CCCCC2)NC(=O)[C@H](CC(=O)O)NC(=O)[C@H](CC(C)C)NC(=O)[C@H]([C@@H](C)CC)NC1=O [compound 431] (HELM PEPTIDE1{[CCCCCCCCC(=O)[*:2]].W.[meA].Q.K.I.L.D.D.H.[O=C([C@@H](N[*:1])C1CCCCC1)[*:2]].Q.R.V.W.G.[am]}$PEPTIDE1,PEPTIDE1,5:R3-9:R3$$$V2.0)	–	< 0.4	–	–
CCCCCCCCCCCC(=O)N[C@@H](Cc1c[nH]c2ccccc12)C(=O)N(C)[C@@H](C)C(=O)N[C@@H](CCC(N)=O)C(=O)N[C@@H](CO)C(=O)N[C@H](C(=O)N[C@@H](CC(C)C)C(=O)N[C@@H](CC(=O)O)C(=O)N[C@H]1CCC(=O)NCCCC[C@@H](C(=O)N[C@H](C(=O)N[C@@H](Cc2c[nH]c3ccccc23)C(N)=O)C(C)C)NC(=O)[C@H](CCC(N)=O)NC(=O)[C@H](C2CCCCC2)NC(=O)[C@H](Cc2c[nH]cn2)NC1=O)[C@@H](C)CC [compound 467] (HELM PEPTIDE1{[CCCCCCCCCCCC(=O)[*:2]].W.[meA].Q.S.I.L.D.E.H.[O=C([C@@H](N[*:1])C1CCCCC1)[*:2]].Q.K.V.W.[am]}$PEPTIDE1,PEPTIDE1,9:R3-13:R3$$$V2.0)	–	< 0.4	–	–
CC[C@H](C)[C@@H]1NC(=O)[C@@H](NC(=O)[C@H](CCC(N)=O)NC(=O)[C@H](C)N(C)C(=O)[C@H](Cc2c[nH]c3ccccc23)NC(=O)COc2ccccc2)CCCCNC(=O)CC[C@@H](C(=O)N[C@@H](Cc2c[nH]cn2)C(=O)N[C@H](C(=O)N[C@@H](CCC(N)=O)C(=O)N[C@@H](CCCNC(=N)N)C(=O)N[C@H](C(=O)N[C@@H](Cc2c[nH]c3ccccc23)C(=O)NCC(N)=O)C(C)C)C(C)C)NC(=O)[C@H](CC(=O)O)NC(=O)[C@H](CC2CCCCC2)NC1=O [compound 408] (HELM PEPTIDE1{[O=C(COc1ccccc1)[*:2]].W.[meA].Q.K.I.[Cha].D.E.H.V.Q.R.V.W.G.[am]}$PEPTIDE1,PEPTIDE1,5:R3-9:R3$$$V2.0)	–	–	–	> 30
CC[C@H](C)[C@@H]1NC(=O)[C@@H](NC(=O)[C@H](CCC(N)=O)NC(=O)[C@H](C)N(C)C(=O)[C@H](Cc2c[nH]c3ccccc23)NC(C)=O)CCC(=O)NCCCC[C@@H](C(=O)N[C@@H](Cc2c[nH]cn2)C(=O)N[C@H](C(=O)N[C@@H](CCC(N)=O)C(=O)N[C@@H](CCCNC(=N)N)C(=O)N[C@H](C(=O)N[C@@H](Cc2c[nH]c3ccccc23)C(=O)NCC(N)=O)C(C)C)C2CCCCC2)NC(=O)[C@H](CC(=O)O)NC(=O)[C@H](CC(C)C)NC1=O [compound 426] (HELM PEPTIDE1{[ac].W.[meA].Q.E.I.L.D.K.H.[O=C([C@@H](N[*:1])C1CCCCC1)[*:2]].Q.R.V.W.G.[am]}$PEPTIDE1,PEPTIDE1,5:R3-9:R3$$$V2.0)	0.91	< 0.4	–	–
CC[C@H](C)[C@H](NC(=O)[C@H](CC(C)C)NC(=O)[C@H](Cc1ccccc1)NC(=O)[C@H](Cc1c[nH]c2ccccc12)NC(=O)[C@@H](N)CCSC)C(=O)N[C@@H](C)C(=O)N[C@@H](Cc1ccccc1)C(=O)N[C@@H](Cc1c[nH]c2ccccc12)C(=O)NCC(=O)O [compound 10] (H-MWFLIAFWG-OH)	0.73	1 to 10	–	–
